What all share (assay): IP1 accumulation
Common to all, as to assay type: cell-based
Settings in all cases: mean ± S.E.M.; for Emax: IP1 maximal response, SEM

One assay deals with T1, hCTR L297A (Homo sapiens, UniProt P30988, L297A).
T1 construct: c-Myc (N); expressed in transfected cells
T1 sequence (P30988 25-474 L297A): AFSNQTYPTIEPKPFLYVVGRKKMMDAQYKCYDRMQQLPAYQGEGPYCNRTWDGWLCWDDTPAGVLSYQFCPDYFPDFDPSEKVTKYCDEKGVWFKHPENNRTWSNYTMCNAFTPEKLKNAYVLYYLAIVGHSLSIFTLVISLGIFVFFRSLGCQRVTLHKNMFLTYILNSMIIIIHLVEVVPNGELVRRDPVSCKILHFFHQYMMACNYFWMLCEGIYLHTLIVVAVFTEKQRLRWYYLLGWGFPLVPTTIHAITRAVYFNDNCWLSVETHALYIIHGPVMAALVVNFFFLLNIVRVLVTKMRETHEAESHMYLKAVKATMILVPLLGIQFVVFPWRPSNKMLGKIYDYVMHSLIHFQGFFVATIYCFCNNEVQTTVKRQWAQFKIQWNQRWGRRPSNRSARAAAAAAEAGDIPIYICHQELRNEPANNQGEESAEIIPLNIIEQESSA
The method, boiled down:
(§1)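 Concentration-response curves were fitted to a 3-parameter logistic model to estimate EC50 and Emax. Cells had been exposed to ligand for 60 min with LiCl, and lysate IP1 determined by HTRF, with normalization to 100 μM ATP.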

The target of a further assay is T2, hCTR L368A (Homo sapiens, UniProt P30988, L368A).
T2 construct: c-Myc (N); expressed in transfected cells
T2 sequence (P30988 25-474 L368A): T1 sequence (P30988 25-474 L297A) with A273L, L344A
The method in brief: as §1

The target in the next assay is T3, hCTR Y284A (Homo sapiens, UniProt P30988, Y284A).
T3 construct: expressed in transfected cells
T3 sequence (P30988 25-474 Y284A): T1 sequence (P30988 25-474 L297A) with Y260A, A273L
The method, boiled down:
as §1

Another assay concerns the target T4, hCTR V375A (Homo sapiens, UniProt P30988, V375A).
T4 construct: c-Myc (N); expressed in transfected cells
T4 sequence (P30988 25-474 V375A): T1 sequence (P30988 25-474 L297A) with A273L, V351A
The method, boiled down:
as §1

In a further assay the target is T5, hCTR V293A (Homo sapiens, UniProt P30988, V293A).
T5 construct: c-Myc (N); expressed in transfected cells
T5 sequence (P30988 25-474 V293A): T1 sequence (P30988 25-474 L297A) with V269A, A273L
The method in brief:
as §1

[1] abbreviates: IP1, CV1-FlpIn cells, 60 min, LiCl.

Positions count from the first letter of the chain named. Where a SMILES comes first, the peptide text is derived from it. Bridges are numbered along the chain shown (N, C = ends).

As to `CC(C)C[C@H](NC(=O)[C@H](CCCCN)NC(=O)CNC(=O)[C@H](CC(C)C)NC(=O)[C@@H](NC(=O)[C@@H]1CSSC[C@H](N)C(=O)N[C@@H](CO)C(=O)N[C@@H](CC(N)=O)C(=O)N[C@@H](CC(C)C)C(=O)N[C@@H](CO)C(=O)N[C@@H]([C@@H](C)O)C(=O)N1)C(C)C)C(=O)N[C@@H](CO)C(=O)N[C@@H](CCC(N)=O)C(=O)N[C@@H](CCC(=O)O)C(=O)N[C@@H](CC(C)C)C(=O)N[C@@H](Cc1c[nH]cn1)C(=O)N[C@@H](CCCCN)C(=O)N[C@@H](CC(C)C)C(=O)N[C@@H](CCC(N)=O)C(=O)N[C@H](C(=O)N[C@@H](Cc1ccc(O)cc1)C(=O)N1CCC[C@H]1C(=O)N[C@@H](CCCNC(=N)N)C(=O)N[C@H](C(=O)N[C@@H](CC(N)=O)C(=O)N[C@H](C(=O)NCC(=O)N[C@@H](CO)C(=O)NCC(=O)N[C@H](C(=O)N1CCC[C@H]1C(N)=O)[C@@H](C)O)[C@@H](C)O)[C@@H](C)O)[C@@H](C)O` [sCT], the Emax at hCTR L297A was found to be 69 ± 7%; at hCTR L368A it was 97 ± 4%; on hCTR Y284A, 118 ± 7%; on hCTR V375A it was 87 ± 5%; at hCTR V293A, 109 ± 7%.

Consider `CSCC[C@H](NC(=O)CNC(=O)[C@H](CO)NC(=O)[C@H](Cc1ccccc1)NC(=O)[C@H](CCCNC(=N)N)NC(=O)[C@H](Cc1c[nH]cn1)NC(=O)[C@H](Cc1ccccc1)NC(=O)[C@H](CC(N)=O)NC(=O)[C@H](CC(N)=O)NC(=O)[C@H](CC(C)C)NC(=O)[C@H](CC(N)=O)NC(=O)[C@H](CCCNC(=N)N)NC(=O)[C@H](Cc1c[nH]c2ccccc12)NC(=O)[C@H](Cc1ccc(O)cc1)NC(=O)[C@H](C)NC(=O)[C@H](CO)NC(=O)[C@H](CC(C)C)NC(=O)[C@@H](NC(=O)[C@@H]1CSSC[C@H](N)C(=O)N[C@@H](CO)C(=O)N[C@@H](CC(N)=O)C(=O)N[C@@H](CC(C)C)C(=O)N[C@@H](CO)C(=O)N[C@@H]([C@@H](C)O)C(=O)N1)C(C)C)C(=O)NCC(=O)N[C@@H](Cc1ccccc1)C(=O)NCC(=O)N1CCC[C@H]1C(=O)N[C@@H](CCC(=O)O)C(=O)N[C@H](C(=O)N1CCC[C@H]1C(N)=O)[C@@H](C)O` [pCT] (H-CSNLSTCVLSAYWRNLNNFHRFSGMGFGPETP-NH2; disulfide 1-7), for which the EC50 at hCTR L297A (setting [1]) was 2 nM; at hCTR L368A (setting [1]), 10 nM; at hCTR Y284A (setting [1]), 1.15 nM; on hCTR V375A (setting [1]), 1.17 nM; at hCTR V293A (setting [1]), 3.24 nM. The Emax on hCTR L297A is 68 ± 5%; at hCTR L368A it was 94 ± 9%; at hCTR Y284A, 94 ± 6%; at hCTR V375A, 100 ± 5%; on hCTR V293A it was 112 ± 10%.

With `CC[C@H](C)[C@H](NC(=O)[C@H](C)NC(=O)[C@@H](NC(=O)[C@H](CCC(N)=O)NC(=O)[C@@H]1CCCN1C(=O)[C@H](Cc1ccccc1)NC(=O)[C@@H](NC(=O)[C@H](Cc1c[nH]cn1)NC(=O)[C@H](Cc1ccccc1)NC(=O)[C@H](CCCCN)NC(=O)[C@H](CC(N)=O)NC(=O)[C@H](Cc1ccccc1)NC(=O)[C@H](CC(=O)O)NC(=O)[C@H](CCC(N)=O)NC(=O)[C@@H](NC(=O)[C@H](Cc1ccc(O)cc1)NC(=O)[C@@H](NC(=O)CNC(=O)[C@H](CC(C)C)NC(=O)[C@H](CCSC)NC(=O)[C@@H]1CSSC[C@H](N)C(=O)NCC(=O)N[C@@H](CC(N)=O)C(=O)N[C@@H](CC(C)C)C(=O)N[C@@H](CO)C(=O)N[C@@H]([C@@H](C)O)C(=O)N1)[C@@H](C)O)[C@@H](C)O)[C@@H](C)O)[C@@H](C)O)C(=O)NCC(=O)N[C@H](C(=O)NCC(=O)N[C@@H](C)C(=O)N1CCC[C@H]1C(N)=O)C(C)C` [hCT], the Emax came out at 52 ± 5% on hCTR L297A; 115 ± 7% at hCTR L368A; 81 ± 12% at hCTR Y284A; 104 ± 6% on hCTR V375A; 87 ± 4% at hCTR V293A.

Values taken from PMC5908784, “Extracellular loops 2 and 3 of the calcitonin receptor selectively modify agonist binding and efficacy” (Biochemical Pharmacology, 2018).
